Experimental findings from patent US8779141B2, “Viral inhibitors” (Gilead Sciences, Inc., priority 2002, dated 2014) are described below.

Series [1] deals with HCV replicon in Huh-5-2 cells. Nature of the series: Anti-HCV replicon assay, luciferase activity in Huh-5-2 cells. Format: cell-based. Particulars: Hepatitis C virus, Table 11, inhibition of luciferase activity in the replicon system by 50%. On the procedure:
(§1) Cells were seeded at a density of 7000 cells per well in 96 well View Plate™ (Packard) in medium containing the same components as described above, except for G418. Cells were allowed to adhere and proliferate for 24 hr. At that time, culture medium was removed and serial dilutions of the test compounds were added in culture medium lacking G418. Interferon alfa 2a (500 IU) was included as a positive control. Plates were further incubated at 37° C. and 5% CO2 for 72 hours. Replication of the HCV replicon in Huh-5 cells results in luciferase activity in the cells. Luciferase activity is measured by adding 50 μl of 1× Glo-lysis buffer (Promega) for 15 minutes followed by 50 ul of the Steady-Glo Luciferase assay reagent (Promega). Luciferase activity is measured with a luminometer and the signal in each individual well is expressed as a percentage of the untreated cultures. […] Instead the density of the culture is measured by means of the MTS method (Promega).

The nature of series [2]: Cytostatic effect on exponentially growing MDBK cells (MTS). In kind it is cell-based, Bovine. The settings on record: bovine; Table 9; reduction of growth of exponentially growing MDBK cells by 50%; mean of 2-5 determinations. Here is the method: (§2) Madin-Darbey Bovine Kidney (MDBK) cells were maintained in Dulbecco's modified Eagle medium (DMEM) supplemented with BVDV-free 5% fetal calf serum ([…]) at 37° C. in a humidified, 5% CO2 atmosphere. […] Vero cells were maintained in the same way as MDBK cells. […] The effect of the drugs on exponentially growing MDBK cells was assessed as follows. Cells were seeded at a density of 5000 cell/well in 96 well plates in MEM medium (Gibco) supplemented with 10% fetal calf serum, 2 mM L-glutamine (Life Technologies) and bicarbonate (Life Technologies). […] Cultures were then again further incubated for 3 days after which the effect on cell growth was quantified by means of the MTS method (Promega).

The nature of series [3]: Proliferation of exponentially growing Huh-5-2 cells (MTS). The settings on record: human, exponentially growing Huh-5-2 cells (HCV replicon cell line); Table 11; inhibition of proliferation of exponentially growing Huh-5-2 cells by 50%. Format: cell-based. On the procedure: as §1
Background: In antiviral work, replicon cells carry a viral genome segment that copies itself.

In series [4] the test system is BVDV-1 (strain PE515). Description: Anti-BVDV assay, virus-induced cytopathic effect in MDBK cells (MTS). In kind it is cell-based, Bovine Viral Diarrhea Virus. The settings on record: reduction of virus induced cytopathic effect in MDBK cells by 50%. Here is the method: (§3) Madin-Darbey Bovine Kidney (MDBK) cells were maintained in Dulbecco's modified Eagle medium (DMEM) supplemented with BVDV-free 5% fetal calf serum (DMEME-FCS) at 37° C. in a humidified, 5% CO2 atmosphere. BVDV-1 (strain PE515) was used to assess the antiviral activity in MDBK cells. Vero cells were maintained in the same way as MDBK cells. Vero cells were infected with Coxsackie B3 virus (strain Nancy).
Ninety-six-well cell culture plates were seeded with MDBK cells in DMEM-FCS so that cells reached 24 hr later confluency. Then medium was removed and serial 5-fold dilutions of the test compounds were added in a total volume of 100 ul, after which the virus inoculum (100 ul) was added to each well. […] Uninfected cells and cells receiving virus without compound were included in each assay plate. After 5 days, medium was removed and 90 μl of DMEM-FCS and 10 ul of MTS/PMS solution (Promega) was added to each well. Following a 2 hr incubation period at 37° C. the optical density of the wells was read at 498 nm in a microplate reader.
(Damage to the host cells serves as the signal in cytopathic effect assays.)

The test system of series [5] is HCV replicon (RNA) synthesis in Huh-5-2 cells. Description: Quantitative analysis of HCV replicon RNA by Taqman real-time RT-PCR in Huh-5-2 cells. In kind it is cell-based, Hepatitis C Virus. Particulars: for Delta CT: higher value = more profound inhibition of viral RNA synthesis; for CT: real-time RT-PCR, untreated 28.86 ± 0.04. On the procedure: Replicon cells were plated at 7.5×10^3 cells per well in a 96-well plate plates at 37° C. and 5% CO2 in Dulbecco's modified essential medium containing 10% fetal calf serum, 1% nonessential amino acids and 1 mg/ml Geneticin. After allowing 24 h for cell attachment, different dilutions of compound were added to the cultures. Plates were incubated for 5 days, at which time RNA was extracted using the Qiamp Rneazyi Kit (Qiagen, Hilden, Germany). […] After initial activation of uracil-N-glycosylase at 50° C. for 2 minutes, RT was performed at 60° C. for 30 minutes, followed by inactivation of uracil-N-glycosylase at 95° C. for 5 minutes. Subsequent PCR amplification consisted of 40 cycles of denaturation at 94° C. for 20 seconds and annealing and extension at 62° C. for 1 minute in an ABI 7700 sequence detector. For each PCR run, negative template and positive template samples were used. The cycle threshold value (Ct-value) is defined as the number of PCR cycles for which the signal exceeds the baseline, which defines a positive value. The sample was considered to be positive if the Ct-value was <50. Results are expressed as genomic equivalents (GE).

Series [6] relates to MDBK cells. Nature of the series: Cytostatic effect on exponentially growing MDBK cells (MTS). In kind it is cell-based, Bovine. The settings on record: for MTC: Table 10, mean toxic concentration, reduces growth of exponentially growing MDBK cells by 50%. On the procedure:
as §2

For series [7], the system named is Coxsackie B3 virus (strain Nancy). Description: Anti-coxsackie virus assay, cytopathic effect in Vero cells (MTS). Format: cell-based. The settings on record: Enterovirus B, Table 13, reduction of virus (CBV-3 Nancy strain)-induced cytopathic effect in Vero cells by 50%. Here is the method:
as §3
(§4) Ninety-six-well cell culture plates were seeded with Vero cells in DMEM medium containing 10 fetal calf serum (FCS) so that cells reached confluency 24-48 hr later. Medium was then removed and serial 5-fold dilutions of the test compounds were added in a total volume of 100 ul, after which the virus inoculum (100 μl) was added to each well. […] Uninfected cells and cells receiving virus without compound were included in each asay plate. After 5 days, the medium was removed and 90 μl of DMEM-FCS and 10 μl of MTS/PMS solution (Promega) was added to each well. Following a 2 hr incubation period at 37° C., the optical density of the wells was read at 498 nm in a microplate reader. The 50% effective concentration (EC50) value was defined as the concentration of compound that protects 50% of the cell monolayer from virus-induced cytopathic effect.

The test system of series [8] is Vero cells. Nature of the series: Metabolism of confluent Vero cells (MTS). Particulars: Table 13; reduction of metabolism of confluent Vero cells by 50%, MTS method. In kind it is cell-based. Here is the method:
as §3, §4

The subject of series [9] is BVDV (strain NADL). Format: cell-based, Bovine Viral Diarrhea Virus. The settings on record: GPJN22-resistant BVDV (F224S). Here is the method:
Wild type BVDV (strain NADL) was twice plaque purified on MDBK cells. The entire coding region of the genome of this virus was sequenced. This plaque purified and sequenced virus was then cultured in the presence of increasing drug concentrations of compound (GPJN22). Following 12 passages, the virus was at least 25 fold resistant to compound GPJN22. The resistant virus preparation was again plaque purified. The entire coding region of the genome of this virus was sequenced. A mutation F224S in the RNA dependent RNA polymerase gene of the virus was detected in 4 out of 4 clones of this virus; no other mutations were detected in the resistant viruses. The GPJN22-resistant virus was cross-resistant with VP32947 (see Table 8). VP32947 is an earlier reported selective inhibitor of BVDV replication [Baginski S G et al., Proc Natl Acad Sci USA. 2000 Jul. 5; 97(14):7981-6]. In VP32947-resistant BVDV, a similar mutation was identified as being responsible for the drug-resistance. To confirm that the F224S mutation is indeed responsible for the resistant phenotype, the mutation was reintroduced by site-directed mutagenesis in an full-length infectious clone of the BVDV (strain NADL) [Vassilev et al., J. Virol. 1997 January; 71(1):471-8.].

Setting [10] is: Bovine viral diarrhea virus isolates and strains, Table 9, BVDV strain PE515, mean of 2-5 determinations, read-out: EC50.
[11] abbreviates: Bovine viral diarrhea virus isolates and strains, Table 10, read-out: EC50.

Broadly, the EC50 is the concentration that produces a half-maximal response. In general, CC50 refers to the concentration at which the toxic effect on the cells reaches its halfway point. A low value points to greater toxicity to the cells. For orientation: melting point means the temperature, or range, at which the solid turns liquid.

≈ marks a conversion by molar mass, not a printed value. Read-outs that look alike come from different tables or passages of the source. Bounds are passed on as bounds.

With `CC(C)(C)c1ccc(Cn2ccc3nc(-c4ccccc4)nc-3c2)cc1` [GPJN-16, 5-[[4-(1,1-Dimethylethyl)phenyl]methyl]-2-phenyl-5H-imidazo[4,5-c]pyridine], the EC50 in series [1] worked out at 1 µg/mL (≈ 2.93 µM); in series [4] (setting [10]), 0.246 µg/mL (≈ 0.72 µM). In series [2], this compound showed a 50% cytotoxic concentration (CC50) at 3 days of 8.1 µg/mL (≈ 23.7 µM). In series [3], this compound registered a CC50 at 72 hours of 3 µg/mL (≈ 8.79 µM).

In the case of `Brc1ccc(Cn2ccc3nc(-c4ccccn4)nc-3c2)cc1` [GPJN-58, 5-[(4-Bromophenyl)methyl]-2-(2-pyridinyl)-5H-imidazo[4,5-c]pyridine], the “Delta CT” value amounted to 0.05 in series [5] (0.0016 ug/ml); 0.89 in series [5] (0.008 ug/ml); 1.03 in series [5] (0.04 ug/ml); 1.14 in series [5] (0.2 ug/ml); 4 in series [5] (1 ug/ml). Besides, the CT in series [5] (0.0016 ug/ml) was 28.91; in [5] (0.008 ug/ml), 29.75; in [5] (0.04 ug/ml) it was 29.89; in series [5] (0.2 ug/ml), 30.00; in series [5] (1 ug/ml), 32.86. Also, the EC50 in [1] is 0.13 µg/mL (≈ 0.356 µM); in [4] (setting [10]), 0.052 µg/mL (≈ 0.142 µM). Moreover, half-maximal cytotoxicity in [2] (CC50 at 3 days) was put at 8.1 µg/mL (≈ 22.2 µM). Besides, the CC50 at 72 hours in series [3] stood at 2 µg/mL (≈ 5.48 µM).

Take `Brc1ccc(Cn2ccc3nc(-c4cccc5ccccc45)nc-3c2)cc1` [GPJN-62, 5-[(4-Bromophenyl)methyl]-2-(1-naphthalenyl)-5H-imidazo[4,5-c]pyridine]: the values for the EC50 in series [1] and in [4] (setting [10]) were under 0.62 µg/mL and 0.12 µg/mL (≈ 0.29 µM), respectively. Also, the CC50 at 3 days in [2] stood at 9.4 µg/mL (≈ 22.7 µM). The compound also returned a CC50 at 72 hours in series [3] of 6 µg/mL (≈ 14.5 µM).

Regarding `FC(F)(F)c1cccc(-c2nc3ccn(Cc4ccc(Br)cc4)cc-3n2)c1` [GPJN-87, 5-[(4-Bromophenyl)methyl]-2-[3-(trifluoromethyl)phenyl]-5H-imidazo[4,5-c]pyridine], the EC50 in series [1] was under 0.62 µg/mL. The compound further registered a CC50 at 72 hours in series [3] of 20 µg/mL (≈ 46.3 µM).

The compound `Clc1c2nc(-c3ccccc3)nc-2ccn1Cc1ccc(Br)cc1` [GPJN-96, 5-[(4-Bromophenyl)methyl]-4-chloro-2-phenyl-5H-imidazo[4,5-c]pyridine] gave a concentration for a half-maximal effect (EC50) in series [1] of 1 µg/mL (≈ 2.51 µM). The compound also came in with a CC50 at 72 hours in [3] of 4 µg/mL (≈ 10 µM).

Regarding `Fc1ccccc1-c1nc2ccn(Cc3ccc(Cl)cc3)cc-2n1` [GPJN-112, 5-[(4-Chlorophenyl)methyl]-2-(2-fluorophenyl)-5H-imidazo[4,5-c]pyridine], the figures for the EC50 in series [1] and in series [4] (setting [11]) were 0.29 µg/mL (≈ 0.859 µM) and 0.0049 µg/mL (≈ 0.0145 µM), respectively. The “MTC” value in series [6] turned out to be 20 µg/mL. Besides, the CC50 at 72 hours in series [3] is over 17 µg/mL.

Turning to `Fc1ccccc1-c1nc2ccn(Cc3ccc(I)cc3)cc-2n1` [GPJN-113, 2-(2-Fluorophenyl)-5-[(4-iodophenyl)methyl]-5H-imidazo[4,5-c]pyridine], the EC50 stood at 0.17 µg/mL (≈ 0.396 µM) in series [1] and 0.0031 µg/mL (≈ 0.00722 µM) in [4] (setting [11]). In addition, the “MTC” value in [6] was determined as 20 µg/mL. The compound also came in with a CC50 at 72 hours in [3] of 14 µg/mL (≈ 32.6 µM).

In the case of `Fc1cccc(F)c1Cn1ccc2nc(-c3c(F)cccc3F)nc-2c1` [GPRTI-8, 2-(2,6-Difluorophenyl)-5-[(2,6-difluorophenyl)methyl]-5H-imidazo[4,5-c]pyridine], the melting point was in the range of 195 to 197 °C. The compound further gave an EC50 in series [7] of 12.2 µg/mL (≈ 34.1 µM). Besides, the CC50 at 3 days in series [2] is over 79 µg/mL. Moreover, the EC50 in series [4] (setting [10]) worked out at 0.137 µg/mL (≈ 0.383 µM). Further, the “TC50” value in series [8] is over 100 µg/mL.

Consider `CCCN(CCC)CCSc1nnc2c(n1)[nH]c1ccccc12` [VP32947, 3-[((2-dipropylamino)ethyl)thio]-5H-1,2,4-triazino[5,6-b]indole, reference compound], for which the “cross-resistance of the GPJN22-resistant virus” value in [9] is reported as “cross-resistant”. For the same compound, the “CC50” value in series [6] (Table 9, reduction of growth of exponentially growing MDBK cells by 50%, mean of 2-5 determinations) came to 47 µg/mL (≈ 143 µM). Moreover, the “EC50” value in series [4] (Table 9, BVDV strain PE515, mean of 2-5 determinations) came to 0.003 µg/mL (≈ 0.00911 µM).
